Measured values from patent US8980906B2, “Pyridonemorphinan analogs and biological activity on opioid receptors” (Purdue Pharma L.P., priority 2012, dated 2015).

Key:
δ-opioid receptor = δ-opioid receptor (Homo sapiens (Human), UniProt P41143); assay: δ-opioid receptor [35S]GTPγS functional assay, HEK-293 or CHO cells; assay type: biochemical
Procedure: δ-Opioid Receptor Functional Assay Procedures: Functional [^35S]GTPγS binding assays were conducted as follows. δ-Opioid receptor membrane solution was prepared by sequentially adding final concentrations of 0.026 μg/μl δ membrane protein (Perkin Elmer, Shelton, Conn.), 10 μg/mL saponin, 3 μM GDP and 0.20 nM [^35S]GTPγS to binding buffer (100 mM NaCl, 10 mM MgCl2, 20 mM HEPES, pH 7.4) on ice. The prepared membrane solution (190 μl/well) was transferred to 96-shallow well polypropylene plates containing 10 μl of 20× concentrated stock solutions of agonist prepared in DMSO. Plates were incubated for 30 min at a temperature of about 25° C. with shaking. Reactions were terminated by rapid filtration onto 96-well Unifilter GF/B filter plates (Perkin Elmer, Shelton, Conn.) using a 96-well tissue harvester (Packard) and followed by three filtration washes with 200 μl ice-cold binding buffer (10 mM NaH2PO4, 10 mM Na2HPO4, pH 7.4). Filter plates were subsequently dried at 50° C. for 1-2 hours. Fifty μl/well scintillation cocktail (Perkin Elmer, Shelton, Conn.) was added and plates were counted in a Packard Top-count for 1 min/well.
δ-Opioid Receptor Functional Data: δ GTP EC50 is the concentration of a compound providing 50% of the maximal response for the compound at a δ receptor.
δ GTP Emax (%) is the maximal effect elicited by a compound relative to the effect elicited by met-enkephalin.
In TABLE 2, activity response of certain Compounds of the Invention to the μ-, δ- and κ-opioid receptors was determined as described above for functional assays using HEK-293 or CHO cells.

ORL-1 receptor = ORL-1 receptor (Homo sapiens (Human), UniProt P41146); assay: ORL-1 receptor radioligand binding assay ([3H]-nociceptin); conditions: binding affinity, [3H]-nociceptin displacement
Procedure: ORL-1 Receptor Binding Assay Procedure: Membranes from recombinant HEK-293 cells expressing the human opioid receptor-like receptor (ORL-1) (Perkin Elmer, Shelton, Conn.) were prepared by lysing cells in ice-cold hypotonic buffer (2.5 mM MgCl2, 50 mM HEPES, pH 7.4) (10 ml/10 cm dish) followed by homogenization with a tissue grinder/Teflon pestle. Membranes were collected by centrifugation at 30,000×g for […] at 4° C. and pellets resuspended in hypotonic buffer to a final concentration of 1-3 mg/ml. Protein concentrations were determined using the BioRad protein assay reagent with bovine serum albumen as standard. Aliquots of the ORL-1 receptor membranes were stored at −80° C.
Radioligand binding assays (screening and dose-displacement) used 0.1 nM [^3H]-nociceptin (Perkin Elmer, Shelton, Conn.; 87.7 Ci/mmole) with 12 μg membrane protein in a final volume of 500 μl binding buffer (10 mM MgCl2, 1 mM EDTA, 5% DMSO, 50 mM HEPES, pH 7.4). Non-specific binding was determined in the presence of […] unlabeled nociceptin (American Peptide Company). All reactions were performed in 96-deep well polypropylene plates for 1 h at room temperature. Binding reactions were terminated by rapid filtration onto 96-well Unifilter GF/C filter plates (Perkin Elmer, Shelton, Conn.) presoaked in 0.5% polyethylenimine (Sigma). Harvesting was performed using a 96-well tissue harvester (Perkin Elmer, Shelton, Conn.) followed by three filtration washes with 500 μl ice-cold binding buffer. Filter plates were subsequently dried at 50° C. for 2-3 hours. Fifty μl/well scintillation cocktail (Perkin Elmer, Shelton, Conn.) was added and plates were counted in a Packard Top-Count for 1 min/well. The data from screening and dose-displacement experiments were analyzed using Microsoft Excel and the curve fitting functions in GraphPad PRISM™, v. 3.0 or higher, respectively, or an in-house function for one-site competition curve-fitting.

μ-opioid receptor = μ-opioid receptor (Homo sapiens (Human), UniProt P35372); assay: μ-opioid receptor [35S]GTPγS functional assay, HEK-293 or CHO cells; assay type: biochemical

Chain of δ-opioid receptor (P41143 whole entry, looked up): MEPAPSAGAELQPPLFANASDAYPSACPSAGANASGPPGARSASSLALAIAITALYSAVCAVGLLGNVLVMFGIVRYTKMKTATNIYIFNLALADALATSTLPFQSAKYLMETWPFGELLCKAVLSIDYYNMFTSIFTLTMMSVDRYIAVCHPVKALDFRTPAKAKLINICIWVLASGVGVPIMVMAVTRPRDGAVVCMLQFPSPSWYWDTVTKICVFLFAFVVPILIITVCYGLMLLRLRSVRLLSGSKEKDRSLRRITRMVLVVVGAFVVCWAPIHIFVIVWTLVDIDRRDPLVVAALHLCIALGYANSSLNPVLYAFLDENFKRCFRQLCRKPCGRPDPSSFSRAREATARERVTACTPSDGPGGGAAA

NC(=O)c1cc2c([nH]c1=O)C[C@]13CCN(CC4CC4)[C@H](Cc4ccc(O)cc41)[C@]3(O)C2 [Compound 5, (6R,6aS,12aR)-15-(cyclopropylmethyl)-2,6a-dihydroxy-10-oxo-6,6a,7,10,11,12-hexahydro-5H-6,12a-(epiminoethano)naphtho[2,1-g]quinoline-9-carboxamide]
EC50 (δ-opioid receptor): > 20000 nM | Ki (ORL-1 receptor): 1330 ± 310 nM | EC50 (μ-opioid receptor): > 20000 nM

O=C(O)c1cc2c([nH]c1=O)C[C@]13CCN(CC4CC4)[C@H](Cc4ccc(O)cc41)[C@]3(O)C2 [Compound 9, (6R,6aS,12aR)-15-(cyclopropylmethyl)-2,6a-dihydroxy-10-oxo-6,6a,7,10,11,12-hexahydro-5H-6,12a-(epiminoethano)naphtho[2,1-g]quinoline-9-carboxylic acid]
EC50 (δ-opioid receptor): > 20000 nM | Ki (ORL-1 receptor): 2320 ± 320 nM | EC50 (μ-opioid receptor): > 20000 nM

O=C(O)c1cc2c([nH]c1=O)C[C@]13CCN(CC4CC4)[C@H](Cc4ccc(O)cc41)[C@@H]3C2 [Compound 11, (6R,6aR,12aS)-15-(cyclopropylmethyl)-2-hydroxy-10-oxo-6,6a,7,10,11,12-hexahydro-5H-6,12a-(epiminoethano)naphtho[2,1-g]quinoline-9-carboxylic acid]
EC50 (δ-opioid receptor): 3.53 ± 1.5 nM | Emax (δ-opioid receptor; relative to met-enkephalin, HEK-293 or CHO cells): 36 ± 3.21% | Ki (ORL-1 receptor): 4.91 ± 0.82 nM | EC50 (μ-opioid receptor): > 20000 nM
